Results published in ChEMBL document CHEMBL2429795, “New route for synthesis, spectroscopy, and X-ray studies of 2-[aryl-(6-hydroxy-4,4-dimethyl-2-oxocyclohex-6-enyl)methyl]-3-hydroxy-5,5-dimethylcyclohex-2-enone and 1,8-dioxo-octahydroxanthenes and antitumor evaluation” (Med Chem Res, 2013).
pIC50: −log10 of the molar value.

Columns and labels:
PrEC [1] = assay: Cytotoxicity against human PrEC assessed as decrease in cell viability up to 25 uM after 24 hrs by trypan blue exclusion assay; format: cell-based
WI-38 [2] = assay: Cytotoxicity against human WI38 cells assessed as growth inhibition after 48 hrs by trypan blue exclusion assay; format: cell-based; settings: for pIC50: Homo sapiens, WI-38, 48 h; for growth inhibition (GI): human, wi-38, 48 h
PrEC [3] = assay: Cytotoxicity against human PrEC assessed as growth inhibition after 48 hrs by trypan blue exclusion assay; format: cell-based; settings: for pIC50: Homo sapiens, PrEC; for growth inhibition (GI): human, prec
[4] = Cytotoxicity against human NCM460 cells assessed as decrease in cell viability up to 25 uM after 4 to 20 hrs by trypan blue exclusion assay; format: cell-based
NCI-H460 = assay: Cytotoxicity against human NCI-H460 cells assessed as growth inhibition after 48 hrs by sulforhodamine B assay; format: functional, cell-based; settings: for pIC50: NCI-H460, 48 h
[5] = Cytotoxicity against human NCM460 cells assessed as growth inhibition after 48 hrs by trypan blue exclusion assay; format: cell-based; settings: for pIC50: Homo sapiens, NCM460, 48 h; for growth inhibition (GI): human, ncm460, 48 h
MCF7 = assay: Cytotoxicity against human MCF7 cells assessed as growth inhibition after 48 hrs by sulforhodamine B assay; format: functional, cell-based; settings: for pIC50: MCF7, 48 h
SF-268 = assay: Cytotoxicity against human SF268 cells assessed as growth inhibition after 48 hrs by sulforhodamine B assay; format: functional, cell-based; settings: for pIC50: SF-268, 48 h
WI-38 [6] = assay: Cytotoxicity against human WI38 cells assessed as decrease in cell viability up to 25 uM after 4 to 20 hrs by trypan blue exclusion assay; format: cell-based

| SMILES | Activity (PrEC [1]) | pIC50 (WI-38 [2]) | growth inhibition (GI) (WI-38 [2]) | pIC50 (PrEC [3]) | growth inhibition (GI) (PrEC [3]) | Activity [4] | growth inhibition (GI) (NCI-H460) | pIC50 (NCI-H460) | pIC50 [5] | growth inhibition (GI) [5] | growth inhibition (GI) (MCF7) | pIC50 (MCF7) | growth inhibition (GI) (SF-268) | pIC50 (SF-268) | Activity (WI-38 [6]) |
| --- | --- | --- | --- | --- | --- | --- | --- | --- | --- | --- | --- | --- | --- | --- | --- |
| CC1(C)CC(=O)C2=C(C1)OC1=C(C(=O)CC(C)(C)C1)C2c1ccccc1 | Non-toxic | 6.33 | Dose-dependent effect | 6.35 | Dose-dependent effect | Non-toxic | Dose-dependent effect | 4.70 | 7.05 | Dose-dependent effect | Dose-dependent effect | 4.52 | Dose-dependent effect | 4.44 | Non-toxic |
| CC1(C)CC(=O)C(C(C2=C(O)CC(C)(C)CC2=O)c2ccco2)=C(O)C1 | Non-toxic | 7.10 | Dose-dependent effect | 6.48 | Dose-dependent effect | Non-toxic | Dose-dependent effect | 7.52 | 7.22 | Dose-dependent effect | Dose-dependent effect | 7.52 | Dose-dependent effect | 7.52 | Non-toxic |
| COc1cccc2c1C(=O)c1c(O)c3c(c(O)c1C2=O)C[C@@](O)(C(=O)CO)C[C@@H]3O[C@H]1C[C@H](N)[C@H](O)[C@H](C)O1 [DOXORUBICIN] |  |  |  |  |  |  |  | 7.05 |  |  |  | 7.40 |  | 7.05 |  |
| CC1(C)CC(=O)C(C(C2=C(O)CC(C)(C)CC2=O)c2ccccc2)=C(O)C1 | Non-toxic | 5.66 | Dose-dependent effect | 5.89 | Dose-dependent effect | Non-toxic | Dose-dependent effect | 8.00 | 5.61 | Dose-dependent effect | Dose-dependent effect | 7.70 | Dose-dependent effect | 7.70 | Non-toxic |
